Results published in patent publication US10953027B2, “Active agents and methods of their use for the treatment of metabolic disorders and nonalcoholic fatty liver disease” (Flagship Pioneering Innovations V, Inc., priority 2018, dated 2021).

Assays:
Assay type in all cases: in vitro ADME
[1] = Assay 1. Stability in Simulated Gastric Fluid (SGF); details: 1 μM, 37° C., SGF pH 1.6 with pepsin
Summary of the method: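 Simulated gastric fluid, prepared fresh as NaCl buffer at pH 1.6 with 0.1 mg/mL pepsin and FaSSIF powder, received test compound to 1 μM final and was held at 37 °C. LC/MS of acetonitrile-quenched samples, taken immediately and then periodically, gave degradation rates.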

[2] = Assay 2. Stability in Simulated Intestinal Fluid (SIF); details: 1 μM, 37° C., SIF pH 6.7 with pancreatin
Summary of the method: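 Degradation rate measured by LC/MS after acetonitrile quench of timed aliquots, starting at T0. Test compound 1 μM in simulated intestinal fluid (pH 6.7 phosphate buffer, FaSSIF powder, pancreatin), shaken at 37 °C.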

[3] = Assay 3. Fecal Incubation Stability; details: 1 or 10 μM, human fecal slurry, anaerobic
Experimental: Assay 3. Fecal Incubation Stability. This assay was used to assess the stability of an acylated active agent in a large intestine. All experiments were performed in an anaerobic chamber containing 90% nitrogen, 5% hydrogen and 5% carbon dioxide. Human fecal matter in a slurry (15% WV) is added to 96 well plates containing YCFA media or other suitable media (1.6 mL). Compounds were added to each individual well to reach a final analyte concentration of 1 or 10 μM, and the material was mixed by pipetting. At set time points a sample was removed, quenched with acetonitrile, and analyzed by LC/MS.

Row | SMILES | Assay 1 (SGF) (% Remaining @ 1 hours) [1] | Assay 2 (SIF) (% @ Remaining 4 hours) [2] | Assay 3 (% Remaining at 24 h) [3]
1 | CCC(=O)O[C@@H]1[C@@H](OC(=O)CC)[C@H](C)O[C@@H](OC(=O)/C=C/c2c[nH]c3ccccc23)[C@@H]1OC(=O)CC [Compound 134, (2S,3R,4R,5S,6S)-6-methyl-3,4,5-tris(propanoyloxy)oxan-2-yl (2E)-3-(1H-indol-3-yl)prop-2-enoate] | C (C: >75% of the tested compound remaining) | B (B: 25-75% of the tested compound remaining) | A (A: <25% of the tested compound remaining)
2 | CC(=O)O[C@@H]1[C@H](OC(C)=O)C=C(C(=O)O)C[C@H]1OC(C)=O [Compound 43, (3R,4S,5R)-3,4,5-triacetoxycyclohex-1-ene-1-carboxylic Acid] | C (C: >75% of the tested compound remaining) | C (C: >75% of the tested compound remaining) | B (B: 25-75% of the tested compound remaining)
3 | CCC(=O)Oc1ccc(-c2cc(=O)c3c(OC(=O)CC)cc(OC(=O)CC)cc3o2)cc1 [Compound 203, 4-oxo-7-(propanoyloxy)-2-[4-(propanoyloxy)phenyl]-4H-chromen-5-yl Propanoate] | C (C: >75% of the tested compound remaining) | A (A: <25% of the tested compound remaining) | B (B: 25-75% of the tested compound remaining)
4 | CCCC(=O)O[C@H]1[C@H](OC(=O)CCC)[C@H](OC(=O)CCc2c[nH]c3ccccc23)O[C@@H](C)[C@H]1OC(=O)CCC [Compound 117, (2S,3S,4R,5R,6S)-4,5-bis(butanoyloxy)-2-{[3-(1H-indol-3-yl)propanoyl]oxy}-6-methyloxan-3-yl Butanoate] | C (C: >75% of the tested compound remaining) | A (A: <25% of the tested compound remaining) | A (A: <25% of the tested compound remaining)
5 | CCCC(=O)OC[C@H]1O[C@@H](OC(=O)CCc2c[nH]c3ccccc23)[C@H](OC(=O)CCC)[C@@H](OC(=O)CCC)[C@@H]1OC(=O)CCC [Compound 118, [(2R,3R,4S,5R,6S)-3,4,5-tris(butanoyloxy)-6-{[3-(1H-indol-3-yl)propanoyl]oxy}oxan-2-yl]methyl Butanoate] | B (B: 25-75% of the tested compound remaining) | A (A: <25% of the tested compound remaining) | A (A: <25% of the tested compound remaining)
6 | O=C(CCc1c[nH]c2ccccc12)O[C@@H]1OC[C@H](OC(=O)CCc2c[nH]c3ccccc23)[C@H](OC(=O)CCc2c[nH]c3ccccc23)[C@H]1OC(=O)CCc1c[nH]c2ccccc12 [Compound 102, (2S,3R,4S,5S)-3,4,5-tris({[3-(1H-indol-3-yl)propanoyl]oxy})oxan-2-yl 3-(1H-indol-3-yl)propanoate] | B (B: 25-75% of the tested compound remaining) | A (A: <25% of the tested compound remaining) | A (A: <25% of the tested compound remaining)
7 | CCC(=O)OC[C@H]1O[C@H](OC(=O)CCc2c[nH]c3ccccc23)[C@H](OC(=O)CC)[C@@H](OC(=O)CC)[C@@H]1OC(=O)CC [Compound 141, [(2R,3R,4S,5R,6R)-6-{[3-(1H-indol-3-yl)propanoyl]oxy}-3,4,5-tris(propanoyloxy)oxan-2-yl]methyl Propanoate] | C (C: >75% of the tested compound remaining) | A (A: <25% of the tested compound remaining) | A (A: <25% of the tested compound remaining)
8 | CCC(=O)O[C@@H]1[C@@H](OC(=O)CC)[C@@H](OC(=O)Cc2c[nH]c3ccccc23)OC[C@@H]1OC(=O)CC [Compound 140, (3S,4S,5R,6R)-6-{[2-(1H-indol-3-yl)acetyl]oxy}-4,5-bis(propanoyloxy)oxan-3-yl Propanoate] | C (C: >75% of the tested compound remaining) | A (A: <25% of the tested compound remaining) | A (A: <25% of the tested compound remaining)
9 | CCC(=O)O[C@H]1[C@H](OC(=O)/C=C/c2c[nH]c3ccccc23)OC[C@@H](OC(=O)CC)[C@H]1OC(=O)CC [Compound 124, (2S,3R,4R,5R)-3,4,5-tris(propanoyloxy)oxan-2-yl (2E)-3-(1H-indol-3-yl)prop-2-enoate] | C (C: >75% of the tested compound remaining) | A (A: <25% of the tested compound remaining) | A (A: <25% of the tested compound remaining)
10 | CCC(=O)O[C@@H]1[C@@H](OC(=O)CC)[C@@H](OC(=O)CCc2c[nH]c3ccccc23)OC[C@@H]1OC(=O)CC [Compound 158, (2R,3R,4S,5S)-3,4,5-tris(propanoyloxy)oxan-2-yl 3-(1H-indol-3-yl)propanoate] | C (C: >75% of the tested compound remaining) | A (A: <25% of the tested compound remaining) | A (A: <25% of the tested compound remaining)
11 | CCC(=O)O[C@@H]1[C@@H](OC(=O)CC)[C@@H](OC(=O)/C=C/c2c[nH]c3ccccc23)OC[C@H]1OC(=O)CC [Compound 125, (2R,3R,4S,5R)-3,4,5-tris(propanoyloxy)oxan-2-yl (2E)-3-(1H-indol-3-yl)prop-2-enoate] | C (C: >75% of the tested compound remaining) | A (A: <25% of the tested compound remaining) | A (A: <25% of the tested compound remaining)
12 | CCCC(=O)O[C@@H]1[C@@H](OC(=O)CCC)[C@@H](OC)OC[C@@H]1OC(=O)CCC [Compound 85, (2S,3R,4S,5S)-3,5-bis(butanoyloxy)-2-methoxyoxan-4-yl Butanoate] | B (B: 25-75% of the tested compound remaining) | B (B: 25-75% of the tested compound remaining) | B (B: 25-75% of the tested compound remaining)
13 | CCC(=O)O[C@@H]1[C@H](OC(=O)CC)COC(O)[C@@H]1OC(=O)CC (stereo partly drawn) [Compound 137, (3R,4R,5R)-2-hydroxy-4,5-bis(propanoyloxy)oxan-3-yl Propanoate] | C (C: >75% of the tested compound remaining) | B (B: 25-75% of the tested compound remaining) | B (B: 25-75% of the tested compound remaining)
14 | CCC(=O)O[C@@H]1O[C@@H](C)[C@H](OC(=O)CC)[C@@H](OC(=O)CC)[C@H]1OC(=O)CC [Compound 111, (2S,3R,4R,5S,6S)-6-methyl-3,4,5-tris(propanoyloxy)oxan-2-yl propanoate] | B (B: 25-75% of the tested compound remaining) | A (A: <25% of the tested compound remaining) | A (A: <25% of the tested compound remaining)
15 | CCC(=O)OC[C@H]1O[C@H](OC(=O)Cc2c[nH]c3ccccc23)[C@H](OC(=O)CC)[C@@H](OC(=O)CC)[C@@H]1OC(=O)CC [Compound 146, [(2R,3R,4S,5R,6R)-6-{[2-(1H-indol-3-yl)acetyl]oxy}-3,4,5-tris(propanoyloxy)oxan-2-yl]methyl Propanoate] | C (C: >75% of the tested compound remaining) | A (A: <25% of the tested compound remaining) | A (A: <25% of the tested compound remaining)
16 | CCCC(=O)Oc1cc(OC(=O)CCC)c2c(c1)O[C@H](c1ccc(OC(=O)CCC)c(OC(=O)CCC)c1)[C@H](OC(=O)CCC)C2 [Compound 235, (2R,3R)-2-[3,4-bis(butanoyloxy)phenyl]-5,7-bis(butanoyloxy)-3,4-dihydro-2H-1-benzopyran-3-yl Butanoate] | C (C: >75% of the tested compound remaining) | A (A: <25% of the tested compound remaining) | A (A: <25% of the tested compound remaining)
17 | CCC(=O)O[C@@H]1[C@@H](OC(=O)CC)[C@H](OC(=O)/C=C/c2c[nH]c3ccccc23)OC[C@H]1OC(=O)CC [Compound 123, (2S,3R,4S,5R)-3,4,5-tris(propanoyloxy)oxan-2-yl (2E)-3-(1H-indol-3-yl)prop-2-enoate] | C (C: >75% of the tested compound remaining) | A (A: <25% of the tested compound remaining) | A (A: <25% of the tested compound remaining)
18 | CCC(=O)O[C@@H]1[C@@H](OC(=O)CC)[C@H](OC(=O)Cc2c[nH]c3ccccc23)OC[C@@H]1OC(=O)CC [Compound 135, (3S,4S,5R,6S)-6-{[2-(1H-indol-3-yl)acetyl]oxy}-4,5-bis(propanoyloxy)oxan-3-yl Propanoate] | C (C: >75% of the tested compound remaining) | A (A: <25% of the tested compound remaining) | A (A: <25% of the tested compound remaining)
